In ChEMBL document CHEMBL6074678, “Selectively Antagonizing the NOD1-Mediated Inflammatory Signaling Pathway Mitigates the Gastric Inflammation Induced by Helicobacter pylori Infection” (J Med Chem, 2024):
The source made the active and inactive calls. The calls are words filed in the database; no cut-off is given here.

Key:
[1] = molecular target: T1, Nucleotide-binding oligomerization domain-containing protein 1 (Homo sapiens, UniProt Q9Y239); test: Antagonist activity at human NOD1 expressed in HEK293 cells assessed as decrease in NF-kappaB activation; format: cell-based
T1 sequence (Q9Y239 whole entry): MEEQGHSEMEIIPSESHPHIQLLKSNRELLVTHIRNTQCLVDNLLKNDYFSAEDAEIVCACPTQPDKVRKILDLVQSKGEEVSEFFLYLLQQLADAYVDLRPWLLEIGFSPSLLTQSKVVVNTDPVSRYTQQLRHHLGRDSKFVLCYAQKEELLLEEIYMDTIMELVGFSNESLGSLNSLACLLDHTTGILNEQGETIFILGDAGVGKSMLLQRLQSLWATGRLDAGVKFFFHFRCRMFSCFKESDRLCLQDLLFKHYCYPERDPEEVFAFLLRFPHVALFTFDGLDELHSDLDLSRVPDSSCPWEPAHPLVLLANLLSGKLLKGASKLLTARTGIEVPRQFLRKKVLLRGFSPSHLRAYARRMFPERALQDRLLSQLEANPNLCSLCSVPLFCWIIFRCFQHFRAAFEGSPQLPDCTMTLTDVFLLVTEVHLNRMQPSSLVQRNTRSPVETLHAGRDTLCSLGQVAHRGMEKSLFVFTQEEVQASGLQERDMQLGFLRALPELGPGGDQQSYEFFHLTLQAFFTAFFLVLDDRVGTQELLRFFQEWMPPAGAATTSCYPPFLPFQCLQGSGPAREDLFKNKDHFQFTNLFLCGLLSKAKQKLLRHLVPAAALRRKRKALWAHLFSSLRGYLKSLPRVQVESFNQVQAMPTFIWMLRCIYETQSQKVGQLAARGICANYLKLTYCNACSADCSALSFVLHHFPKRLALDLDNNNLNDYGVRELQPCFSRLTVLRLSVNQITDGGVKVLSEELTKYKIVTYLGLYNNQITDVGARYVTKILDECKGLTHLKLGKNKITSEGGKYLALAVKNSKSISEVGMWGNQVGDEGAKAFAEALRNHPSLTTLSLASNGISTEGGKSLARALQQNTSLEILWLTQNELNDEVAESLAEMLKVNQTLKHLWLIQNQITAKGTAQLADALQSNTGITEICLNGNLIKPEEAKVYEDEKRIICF

THP-1 [2] = test: Anti-inflammatory activity in human THP-1 cells assessed as decrease in IL-6 mRNA level at 0.1 uM pretreated for 1 hr followed by C12-iE-DAP stimulation for 2 hrs by RT-qPCR analysis relative to control; format: functional; parameters: scale not given: the % may be the effect or the level left; conditions: time 3 hrs
THP-1 [3] = test: Anti-inflammatory activity in human THP-1 cells assessed as decrease in TNF-alpha mRNA level at 0.1 uM pretreated for 1 hr followed by C12-iE-DAP stimulation for 2 hrs by RT-qPCR analysis relative to control; format: functional; parameters: scale not given: the % may be the effect or the level left; conditions: time 3 hrs
[4] = Anti-inflammatory activity in mouse BMDM cells assessed as decrease in TNF-alpha mRNA level at 0.1 uM pretreated for 1 hr followed by C12-iE-DAP stimulation for 2 hrs by RT-qPCR analysis relative to control; format: functional; parameters: scale not given: the % may be the effect or the level left; conditions: time 3 hrs
THP-1 [5] = test: Anti-inflammatory activity in human THP-1 cells assessed as decrease in CXCL8 mRNA level at 5 uM pretreated for 1 hr followed by infection with Helicobacter pylori for 2 hrs by RT-qPCR analysis; format: functional, cell-based; conditions: time 3.0 hrs
BMDM [6] = test: Anti-inflammatory activity in mouse BMDM cells assessed as decrease in CXCL8 mRNA level at 1 to 5 uM pretreated for 1 hr followed by infection with Helicobacter pylori for 2 hrs by RT-qPCR analysis; format: functional, cell-based; conditions: dose 1-5 µM, time 3.0 hrs
BMDM [7] = test: Anti-inflammatory activity in mouse BMDM cells assessed as decrease in TNF-alpha mRNA level at 1 to 5 uM pretreated for 1 hr followed by infection with Helicobacter pylori for 2 hrs by RT-qPCR analysis; format: functional, cell-based; conditions: dose 1-5 µM, time 3.0 hrs
[8] = Half life in C57BL/6 mouse at 2 mg/kg, iv by LC-MS/MS analysis; format: ADME, organism-based; conditions: in vivo
[9] = Cmax in C57BL/6 mouse at 2 mg/kg, iv by LC-MS/MS analysis; format: ADME, organism-based; conditions: in vivo
[10] = Cmax in C57BL/6 mouse at 20 mg/kg, po by LC-MS/MS analysis; format: ADME, organism-based; conditions: in vivo
[11] = AUC (infinity) in C57BL/6 mouse at 20 mg/kg, po by LC-MS/MS analysis; format: ADME, organism-based; conditions: in vivo
[12] = Oral bioavailability in C57BL/6 mouse at 20 mg/kg by LC-MS/MS analysis; format: ADME, organism-based; conditions: in vivo
Mus musculus [13] = test: Anti-inflammatory activity in C57BL/6 mouse assessed as inhibition in serum keratinocyte chemoattractant level at 12.5 to 50 mg/kg, po pretreated with compound for 15 mins followed by C12-iE-DAP administration measured after 2 hrs by ELISA relative to control; format: functional; conditions: dose 12.5-50 mg/kg, time 135 min, 2.25 h
Mus musculus [14] = test: Anti-inflammatory activity in C57BL/6 mouse model of Helicobacter pylori-induced gastric inflammation assessed as inhibition in gastric keratinocyte chemoattractant level pretreated orally with compound upto 24 hrs followed by infection of Helicobacter pylori measured upto 72 hrs; format: functional, organism-based; conditions: dose 12.5-50 mg/kg, route po, time <= 96.0 hrs
Mus musculus [15] = test: Anti-inflammatory activity in C57BL/6 mouse model of Helicobacter pylori-induced gastric inflammation assessed as reduction in IL-6 level in gastric tissue at 50 mg/kg, po pretreated with compound upto 24 hrs followed by infection of Helicobacter pylori measured upto 72 hrs; format: functional, organism-based; conditions: time <= 96.0 hrs

IC50 [1]: 0.8 nM
t1/2 [8]: 3.9 min
Cmax [9]: 234 ng/mL
Cmax [10]: 44.6 ng/mL
AUC(0-inf) [11]: 35.9 ng·h/mL
bioavailability [12]: 4.77%
SMILES: CS(=O)(=O)c1ccc2nc(Cl)n(-c3ccc(Cl)c(NS(=O)(=O)c4c(F)cccc4F)c3)c(=O)c2c1
Activity (THP-1 [2]): ~100%
Activity (THP-1 [3]): ~100%
Activity [4]: ~100%
Activity (THP-1 [5]): Active
Activity (BMDM [6]): Active
Activity (BMDM [7]): Active
inhibition (INH) (Mus musculus [13]): ~77%
inhibition (Mus musculus [14]): Dose-dependent-effect; Exhibited Superior Efficacy Compared To Compound C
Activity (Mus musculus [15]): Active
